Experimental data published in ChEMBL document CHEMBL1146232, “Discovery of N-{(1S,2S)-2-(3-cyanophenyl)- 3-[4-(2-[18F]fluoroethoxy)phenyl]-1-methylpropyl}- 2-methyl-2-[(5-methylpyridin-2-yl)oxy]propanamide, a cannabinoid-1 receptor positron emission tomography tracer suitable for clinical use” (J Med Chem, 2007).

Legend:
[1] = Distribution coefficient, log D at pH 7.3; assay type: physicochemical; settings: octanol/water
Cannabinoid receptor 1 = Cannabinoid receptor 1 (Homo sapiens, UniProt P21554); assay: Displacement of [3H]CP-55940 from human recombinant CB1R expressed in CHO cells; assay type: cell-based
[2] = Clearance in Sprague-Dawley rat at 1 mg/kg, iv; assay type: ADME, organism-based; parameters: dose 1 mg/kg, route intravenous; settings: in vivo
[3] = Ratio of drug level in brain to plasma in Sprague-Dawley rat at 1 mg/kg, iv after 15 mins; assay type: ADME, organism-based; parameters: dose 1 mg/kg, route intravenous; settings: brain and plasma
Cannabinoid receptor 2 = Cannabinoid receptor 2 (Homo sapiens, UniProt P34972); assay: Agonist activity at human CB2R; assay type: functional
[4] = Half life in Sprague-Dawley rat at 1 mg/kg, iv; assay type: ADME, organism-based; parameters: dose 1 mg/kg, route intravenous; settings: in vivo

Chain of Cannabinoid receptor 1 (P21554 whole entry): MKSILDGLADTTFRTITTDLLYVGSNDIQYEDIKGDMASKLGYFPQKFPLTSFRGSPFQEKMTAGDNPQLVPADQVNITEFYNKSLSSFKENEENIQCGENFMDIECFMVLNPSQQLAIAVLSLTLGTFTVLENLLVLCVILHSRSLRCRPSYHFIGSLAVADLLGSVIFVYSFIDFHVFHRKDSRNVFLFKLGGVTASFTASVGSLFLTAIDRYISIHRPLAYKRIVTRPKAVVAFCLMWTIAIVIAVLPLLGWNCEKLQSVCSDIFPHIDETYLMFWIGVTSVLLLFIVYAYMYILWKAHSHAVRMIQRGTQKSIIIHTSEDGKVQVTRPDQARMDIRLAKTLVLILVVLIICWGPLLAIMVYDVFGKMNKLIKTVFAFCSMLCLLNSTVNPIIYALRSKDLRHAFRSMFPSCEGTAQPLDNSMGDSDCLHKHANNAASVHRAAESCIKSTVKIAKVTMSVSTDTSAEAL
Chain of Cannabinoid receptor 2 (P34972 whole entry): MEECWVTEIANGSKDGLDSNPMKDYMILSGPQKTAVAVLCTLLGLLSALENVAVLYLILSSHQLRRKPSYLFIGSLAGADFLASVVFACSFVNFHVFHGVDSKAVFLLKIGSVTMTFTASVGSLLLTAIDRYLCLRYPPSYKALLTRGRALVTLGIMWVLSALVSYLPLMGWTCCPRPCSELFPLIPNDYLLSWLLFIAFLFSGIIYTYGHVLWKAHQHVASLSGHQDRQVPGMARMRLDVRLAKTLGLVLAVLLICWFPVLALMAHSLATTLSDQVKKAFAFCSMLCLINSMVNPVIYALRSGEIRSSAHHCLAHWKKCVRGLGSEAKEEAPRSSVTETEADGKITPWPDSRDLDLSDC

Question: With `C[C@H](NC(=O)C(C)(C)Oc1ccc(C(F)(F)F)cn1)[C@@H](Cc1ccc(OCCF)cc1)c1cccc(C#N)c1` as the compound, how does the logD [1] read?
Answer: 4.4

Question: What about the IC50 (Cannabinoid receptor 1) of the same compound?
Answer: 900 pM

Question: Which logD [1] does the source give for `C[C@H](NC(=O)C(C)(C)Oc1ccc(Cl)cn1)[C@@H](Cc1ccc(OCCF)cc1)c1cccc(C#N)c1` here?
Answer: 4.2

Question: And the IC50 (Cannabinoid receptor 1)?
Answer: 800 pM

Question: For `Cc1ccnc(OC(C)(C)C(=O)N[C@@H](C)[C@@H](Cc2ccc(OCCF)cc2)c2cccc(C#N)c2)c1`, which logD [1] is on record?
Answer: 4.1

Question: What about the IC50 (Cannabinoid receptor 1) of the same compound?
Answer: 470 pM

Question: With `Cc1ccc(OC(C)(C)C(=O)N[C@@H](C)[C@@H](Cc2ccc(OCCF)cc2)c2cccc(C#N)c2)nc1` as the compound, how does the clearance [2] read?
Answer: 81 mL/min/kg

Question: And the Kp at 0.25 h [3]?
Answer: 0.5

Question: And the IC50 (Cannabinoid receptor 2)?
Answer: 44000 pM

Question: And the logD [1]?
Answer: 4

Question: What about the half-life [4] of the same compound?
Answer: 1.4 h

Question: What about the IC50 (Cannabinoid receptor 1) of the same compound?
Answer: 700 pM

Question: With `C[C@H](NC(=O)C(C)(C)Oc1cc(C(F)(F)F)ncn1)[C@@H](Cc1ccc(OCCF)cc1)c1cccc(C#N)c1` as the compound, how does the logD [1] read?
Answer: 3.9

Question: What about the IC50 (Cannabinoid receptor 1) of the same compound?
Answer: 1800 pM

Question: Which logD [1] does the source give for `Cc1ccc(OC(C)(C)C(=O)N[C@@H](C)[C@@H](Cc2ccc(OCC[18F])cc2)c2cccc(C#N)c2)nc1` here?
Answer: 4

Question: What about the IC50 (Cannabinoid receptor 1) of the same compound?
Answer: 730 pM

Question: Which logD [1] does the source give for `COc1ccc(C[C@@H](c2cc(F)cc(C#N)c2)[C@H](C)NC(=O)C(C)(C)Oc2ccc(C(F)(F)F)cn2)cc1` here?
Answer: 4.8

Question: And the IC50 (Cannabinoid receptor 1)?
Answer: 900 pM

Question: Which logD [1] does the source give for `C[C@H](NC(=O)C(C)(C)Oc1ccc(C(F)(F)F)cn1)[C@@H](Cc1ccc(OCF)cc1)c1cc(F)cc(C#N)c1` here?
Answer: 4.7

Question: And the IC50 (Cannabinoid receptor 1)?
Answer: 2000 pM

Question: With `C[C@H](NC(=O)C(C)(C)Oc1ccccn1)[C@@H](Cc1ccc(OCCF)cc1)c1cccc(C#N)c1` as the compound, how does the logD [1] read?
Answer: 3.7

Question: What about the IC50 (Cannabinoid receptor 1) of the same compound?
Answer: 1300 pM

Question: Which logD [1] does the source give for `C[C@H](NC(=O)C(C)(C)Oc1ccc(C(F)(F)F)cn1)[C@@H](Cc1ccc(OCCF)cc1)c1cc(F)cc(C#N)c1` here?
Answer: 4.6

Question: What about the IC50 (Cannabinoid receptor 1) of the same compound?
Answer: 900 pM

Question: Which results are given for `C[C@H](NC(=O)C(C)(C)Oc1cc(C(F)(F)F)ccn1)[C@@H](Cc1ccc(OCCF)cc1)c1cccc(C#N)c1`?
Answer: logD [1]: 4.6; IC50 (Cannabinoid receptor 1): 770 pM

Question: Which logD [1] does the source give for `C[C@H](NC(=O)C(C)(C)Oc1ccc(C#N)cn1)[C@@H](Cc1ccc(OCCF)cc1)c1cccc(C#N)c1` here?
Answer: 3.3

Question: What about the IC50 (Cannabinoid receptor 1) of the same compound?
Answer: 1800 pM

Question: Which logD [1] does the source give for `C[C@H](NC(=O)C(C)(C)Oc1ccc(C(F)(F)F)cn1)[C@@H](Cc1ccc(Cl)cc1)c1cccc(C#N)c1` [TARANABANT] here?
Answer: 5.2
